# Where “and” joins values, the source holds several entries; their conditions need not be identical. Equal values may be shown once. Toxic doses and inconclusive results are not listed.
# Tested on: CD2F1 mice, L1210 leukemia ip, survival T/C
# Experiment: NCI In Vivo Anticancer Drug Screen. Data for tumor model L1210 Leukemia (intraperitoneal) in CD2F1 (CDF1) mice
# Details: higher = longer survival
# Procedure, shortened: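 Activity against a transplanted murine tumor was judged by comparing the compound group with a vehicle group. The outcome in the treated animals was divided by that in the controls.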
# [1] = endpoint: mean survival time, dose: 100.0 mg/kg/injection, schedule: Q04DX002 (ip), vehicle: saline with Tween-80
# [2] = endpoint: mean survival time, dose: 200.0 mg/kg/injection, schedule: Q04DX002 (ip), vehicle: saline with Tween-80
# [3] = endpoint: mean survival time, dose: 400.0 mg/kg/injection, schedule: Q04DX002 (ip), vehicle: saline with Tween-80
# [4] = endpoint: mean survival time, dose: 50.0 mg/kg/injection, schedule: Q01DX009 (ip), vehicle: saline with Tween-80
# [5] = endpoint: mean survival time, dose: 100.0 mg/kg/injection, schedule: Q01DX009 (ip), vehicle: saline with Tween-80
# [6] = endpoint: mean survival time, dose: 200.0 mg/kg/injection, schedule: Q01DX009 (ip), vehicle: saline with Tween-80
# [7] = endpoint: mean survival time, dose: 100.0 mg/kg/injection, schedule: Q04DX003 (ip), vehicle: saline with Tween-80
# [8] = endpoint: mean survival time, dose: 200.0 mg/kg/injection, schedule: Q04DX003 (ip), vehicle: saline with Tween-80
smiles,measurement,setting,value
Nc1cc(=O)c2ncn(C3OC(CO)C(O)C3O)c2[nH]1 (stereo not drawn),T/C,"endpoint: mean survival time, dose: 25.0 mg/kg/injection, schedule: Q01DX005 (ip), vehicle: other",98 % of control
same,T/C,"endpoint: mean survival time, dose: 50.0 mg/kg/injection, schedule: Q01DX005 (ip), vehicle: other",93 % of control
same,T/C,"endpoint: mean survival time, dose: 100.0 mg/kg/injection, schedule: Q01DX005 (ip), vehicle: other",87 % of control
same,T/C,"endpoint: mean survival time, dose: 200.0 mg/kg/injection, schedule: Q01DX005 (ip), vehicle: other",106 % of control
same,T/C,"endpoint: mean survival time, dose: 400.0 mg/kg/injection, schedule: Q01DX005 (ip), vehicle: other",103 % of control
O=C1NC(c2ccccc2)C2/C=C\CCCCC12 (stereo not drawn),T/C,"endpoint: mean survival time, dose: 75.0 mg/kg/injection, schedule: Q04DX002 (ip), vehicle: saline with Tween-80",93 % of control
same,T/C,"endpoint: mean survival time, dose: 150.0 mg/kg/injection, schedule: Q04DX002 (ip), vehicle: saline with Tween-80",96 % of control
same,T/C,"endpoint: mean survival time, dose: 300.0 mg/kg/injection, schedule: Q04DX002 (ip), vehicle: saline with Tween-80",93 % of control
COc1ccc([N+](=O)[O-])cc1NC(=O)Nc1ccccc1C,T/C,[1],92 % of control
same,T/C,[2],88 % of control
same,T/C,[3],95 % of control
O=C(Oc1ccccc1/C=C/[n+]1ccccc1)c1ccccc1,T/C,[4],92 % of control
same,T/C,[5],100 % of control
same,T/C,[6],96 % of control
CC(=O)Nc1ccccc1OC(=O)c1ccccc1,T/C,[4],97 % of control
same,T/C,[5],97 % of control
same,T/C,[7],101 % of control
same,T/C,[6],97 % of control
same,T/C,[8],95 % of control
COC(=O)NC1=C(N2CC2)C(=O)C(NC(=O)OC)=C(N2CC2)C1=O,T/C,"endpoint: mean survival time, dose: 0.75 mg/kg/injection, schedule: Q01DX009 (ip), vehicle: saline",154 % of control
same,T/C,"endpoint: mean survival time, dose: 1.5 mg/kg/injection, schedule: Q01DX009 (ip), vehicle: saline",175 % of control
COC(=O)Nc1ccccc1OS(=O)(=O)N(C)C,T/C,"endpoint: mean survival time, dose: 25.0 mg/kg/injection, schedule: Q01DX009 (ip), vehicle: saline with Tween-80",95 % of control
same,T/C,[4],104 % of control
same,T/C,[5],96 % of control and 103 % of control
O=C(C[n+]1cccc(C(=O)NCc2ccccc2)c1)NCc1ccccc1,T/C,"endpoint: mean survival time, dose: 25.0 mg/kg/injection, schedule: Q04DX003 (ip), vehicle: saline",103 % of control
same,T/C,"endpoint: mean survival time, dose: 50.0 mg/kg/injection, schedule: Q04DX003 (ip), vehicle: saline",101 % of control
same,T/C,"endpoint: mean survival time, dose: 100.0 mg/kg/injection, schedule: Q04DX003 (ip), vehicle: saline",98 % of control
CC1=CC=CC2=NC(=O)CCN12,T/C,[5],104 % of control
same,T/C,[7],105 % of control
same,T/C,[6],106 % of control
same,T/C,[8],102 % of control
same,T/C,"endpoint: mean survival time, dose: 400.0 mg/kg/injection, schedule: Q01DX009 (ip), vehicle: saline with Tween-80",103 % of control
same,T/C,"endpoint: mean survival time, dose: 400.0 mg/kg/injection, schedule: Q04DX003 (ip), vehicle: saline with Tween-80",103 % of control
O=C(O)CC1(CC(=O)O)CCCCC1,T/C,[4],98 % of control
same,T/C,[5],94 % of control
same,T/C,[7],91 % of control
same,T/C,[6],100 % of control
same,T/C,[8],93 % of control
CC[NH-].[Cl][Pt+2][Cl].[NH-]C1CC1,T/C,"endpoint: mean survival time, dose: 3.13 mg/kg/injection, schedule: Q04DX003 (ip), vehicle: distilled water + Tween-80",116 % of control
Cc1ccc(C)c(Br)c1C,T/C,"endpoint: mean survival time, dose: 100.0 mg/kg/injection, schedule: Q01DX005 (ip), vehicle: saline with Tween-80",97 % of control
same,T/C,"endpoint: mean survival time, dose: 200.0 mg/kg/injection, schedule: Q01DX005 (ip), vehicle: saline with Tween-80",101 % of control
same,T/C,"endpoint: mean survival time, dose: 400.0 mg/kg/injection, schedule: Q01DX005 (ip), vehicle: saline with Tween-80",97 % of control
O=C(CCCN1CCC(C(O)c2ccc(F)cc2)CC1)c1ccc(F)cc1 (stereo not drawn),T/C,"endpoint: median survival time, dose: 6.25 mg/kg/injection, schedule: Q01DX009 (ip), vehicle: saline with Tween-80",103 % of control and 109 % of control and 112 % of control
same,T/C,"endpoint: median survival time, dose: 6.25 mg/kg/injection, schedule: Q06HX014 (oral), vehicle: saline with Tween-80",104 % of control
same,T/C,"endpoint: median survival time, dose: 12.5 mg/kg/injection, schedule: Q01DX009 (ip), vehicle: saline with Tween-80",120 % of control and 108 % of control
same,T/C,"endpoint: median survival time, dose: 12.5 mg/kg/injection, schedule: Q01DX009 (oral), vehicle: saline with Tween-80",111 % of control
same,T/C,"endpoint: median survival time, dose: 12.5 mg/kg/injection, schedule: Q06HX014 (oral), vehicle: saline with Tween-80",105 % of control
same,T/C,"endpoint: median survival time, dose: 25.0 mg/kg/injection, schedule: Q01DX009 (ip), vehicle: saline with Tween-80",121 % of control
same,T/C,"endpoint: median survival time, dose: 25.0 mg/kg/injection, schedule: Q01DX009 (oral), vehicle: saline with Tween-80",105 % of control
same,T/C,"endpoint: median survival time, dose: 25.0 mg/kg/injection, schedule: Q04DX003 (oral), vehicle: saline with Tween-80",102 % of control
same,T/C,"endpoint: median survival time, dose: 25.0 mg/kg/injection, schedule: Q06HX014 (oral), vehicle: saline with Tween-80",105 % of control
same,T/C,"endpoint: median survival time, dose: 29.7 mg/kg/injection, schedule: Q01DX009 (oral), vehicle: saline with Tween-80",109 % of control
same,T/C,"endpoint: median survival time, dose: 44.5 mg/kg/injection, schedule: Q01DX009 (oral), vehicle: saline with Tween-80",111 % of control
same,T/C,"endpoint: median survival time, dose: 50.0 mg/kg/injection, schedule: Q01DX009 (ip), vehicle: saline with Tween-80",123 % of control and 124 % of control
same,T/C,"endpoint: median survival time, dose: 50.0 mg/kg/injection, schedule: Q01DX009 (oral), vehicle: saline with Tween-80",115 % of control
same,T/C,"endpoint: median survival time, dose: 50.0 mg/kg/injection, schedule: Q04DX003 (oral), vehicle: saline with Tween-80",112 % of control
same,T/C,"endpoint: median survival time, dose: 50.0 mg/kg/injection, schedule: Q06HX014 (oral), vehicle: saline with Tween-80",113 % of control
same,T/C,"endpoint: median survival time, dose: 66.7 mg/kg/injection, schedule: Q01DX009 (oral), vehicle: saline with Tween-80",118 % of control
same,T/C,"endpoint: median survival time, dose: 100.0 mg/kg/injection, schedule: Q01DX009 (ip), vehicle: saline with Tween-80",118 % of control
same,T/C,"endpoint: median survival time, dose: 100.0 mg/kg/injection, schedule: Q01DX009 (oral), vehicle: saline with Tween-80",118 % of control
same,T/C,"endpoint: median survival time, dose: 100.0 mg/kg/injection, schedule: Q04DX003 (oral), vehicle: saline with Tween-80",111 % of control
same,T/C,"endpoint: median survival time, dose: 200.0 mg/kg/injection, schedule: Q04DX003 (oral), vehicle: saline with Tween-80",115 % of control
CCOC(=O)Nc1ccc(F)cc1,T/C,"endpoint: mean survival time, dose: 100.0 mg/kg/injection, schedule: Q01DX009 (ip), vehicle: other",98 % of control
same,T/C,"endpoint: mean survival time, dose: 200.0 mg/kg/injection, schedule: Q01DX009 (ip), vehicle: other",98 % of control
same,T/C,"endpoint: mean survival time, dose: 400.0 mg/kg/injection, schedule: Q01DX009 (ip), vehicle: other",107 % of control
CCCCC#CC(=O)CCCCC,T/C,[4],97 % of control
same,T/C,[5],102 % of control
COC1=C(N=[N+]=[N-])C(=O)C(OC)=C(N=[N+]=[N-])C1=O,T/C,"endpoint: mean survival time, dose: 5.0 mg/kg/injection, schedule: Q01DX009 (ip), vehicle: saline with Tween-80",101 % of control
same,T/C,"endpoint: mean survival time, dose: 5.0 mg/kg/injection, schedule: Q04DX003 (ip), vehicle: saline with Tween-80",93 % of control
same,T/C,"endpoint: mean survival time, dose: 10.0 mg/kg/injection, schedule: Q01DX009 (ip), vehicle: saline with Tween-80",94 % of control
same,T/C,"endpoint: mean survival time, dose: 10.0 mg/kg/injection, schedule: Q04DX003 (ip), vehicle: saline with Tween-80",95 % of control
same,T/C,"endpoint: mean survival time, dose: 20.0 mg/kg/injection, schedule: Q01DX009 (ip), vehicle: saline with Tween-80",94 % of control
same,T/C,"endpoint: mean survival time, dose: 20.0 mg/kg/injection, schedule: Q04DX003 (ip), vehicle: saline with Tween-80",95 % of control
CCOC(=O)c1c(-c2ccccc2)[nH]c(C)cc1=O,T/C,[1],100 % of control
same,T/C,[2],100 % of control
same,T/C,[3],100 % of control
CC(C)OC(=S)S.[Pt],T/C,"endpoint: mean survival time, dose: 11.3 mg/kg/injection, schedule: Q04DX003 (ip), vehicle: saline with Tween-80",89 % of control
same,T/C,"endpoint: mean survival time, dose: 22.5 mg/kg/injection, schedule: Q04DX003 (ip), vehicle: saline with Tween-80",97 % of control
same,T/C,"endpoint: mean survival time, dose: 45.0 mg/kg/injection, schedule: Q04DX003 (ip), vehicle: saline with Tween-80",101 % of control
same,T/C,"endpoint: mean survival time, dose: 90.0 mg/kg/injection, schedule: Q04DX003 (ip), vehicle: saline with Tween-80",97 % of control
same,T/C,"endpoint: mean survival time, dose: 180.0 mg/kg/injection, schedule: Q04DX003 (ip), vehicle: saline with Tween-80",95 % of control
COC(=O)C1C(O)C(C)C(O)C(C)(O)C=C(C)C2=C3C(=C(C)C(=O)c4c(O)c(c(C)c(OC(C)=O)c43)NC(=O)C(C)=C/C=C\C(C)(O)C(O)C(C)C1O)OCO2 (stereo not drawn),T/C,"endpoint: mean survival time, dose: 12.5 mg/kg/injection, schedule: Q04DX003 (ip), vehicle: saline with Tween-80",96 % of control
same,T/C,"endpoint: mean survival time, dose: 25.0 mg/kg/injection, schedule: Q04DX003 (ip), vehicle: saline with Tween-80",101 % of control
same,T/C,"endpoint: mean survival time, dose: 50.0 mg/kg/injection, schedule: Q04DX003 (ip), vehicle: saline with Tween-80",101 % of control
same,T/C,[7],111 % of control
CC12CCC3C(CCC4CCCCC43C)C1CC/C2=N\O (stereo not drawn),T/C,"endpoint: mean survival time, dose: 100.0 mg/kg/injection, schedule: Q04DX003 (sc), vehicle: steriod suspending solution",96 % of control
same,T/C,"endpoint: mean survival time, dose: 200.0 mg/kg/injection, schedule: Q04DX003 (sc), vehicle: steriod suspending solution",104 % of control
same,T/C,"endpoint: mean survival time, dose: 400.0 mg/kg/injection, schedule: Q04DX003 (sc), vehicle: steriod suspending solution",89 % of control

# From PubChem BioAssay AID256 (DTP/NCI, 2004)
